Experimental data published in patent publication US20240116985A1, “STAPLED PEPTIDES AND METHODS THEREOF” (priority 2020, published 2024).
In brackets after ≈: the same amount, converted by molar mass. Like-named read-outs stand apart in the source and are kept apart here.

Assays:
Solubility in PBS = format: physicochemical
How it was run: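 Steps: ultracentrifuge the peptide PBS solution, inject the supernatant on HPLC, inject a 50 μM peptide DMSO solution as reference, then calculate solubility as area ratio (PBS/DMSO) × 50 uM.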

[1] = target: T1, full-length beta-Catenin (Uniprot ID P35222) (Homo sapiens, UniProt P35222); assay: Fluorescence polarization IC50 (beta-catenin / 5FAM-TCF4 10-53 competition); format: binding
T1 construct: 10 nM full-length beta-Catenin (Uniprot ID P35222)
T1 sequence (P35222 1-781): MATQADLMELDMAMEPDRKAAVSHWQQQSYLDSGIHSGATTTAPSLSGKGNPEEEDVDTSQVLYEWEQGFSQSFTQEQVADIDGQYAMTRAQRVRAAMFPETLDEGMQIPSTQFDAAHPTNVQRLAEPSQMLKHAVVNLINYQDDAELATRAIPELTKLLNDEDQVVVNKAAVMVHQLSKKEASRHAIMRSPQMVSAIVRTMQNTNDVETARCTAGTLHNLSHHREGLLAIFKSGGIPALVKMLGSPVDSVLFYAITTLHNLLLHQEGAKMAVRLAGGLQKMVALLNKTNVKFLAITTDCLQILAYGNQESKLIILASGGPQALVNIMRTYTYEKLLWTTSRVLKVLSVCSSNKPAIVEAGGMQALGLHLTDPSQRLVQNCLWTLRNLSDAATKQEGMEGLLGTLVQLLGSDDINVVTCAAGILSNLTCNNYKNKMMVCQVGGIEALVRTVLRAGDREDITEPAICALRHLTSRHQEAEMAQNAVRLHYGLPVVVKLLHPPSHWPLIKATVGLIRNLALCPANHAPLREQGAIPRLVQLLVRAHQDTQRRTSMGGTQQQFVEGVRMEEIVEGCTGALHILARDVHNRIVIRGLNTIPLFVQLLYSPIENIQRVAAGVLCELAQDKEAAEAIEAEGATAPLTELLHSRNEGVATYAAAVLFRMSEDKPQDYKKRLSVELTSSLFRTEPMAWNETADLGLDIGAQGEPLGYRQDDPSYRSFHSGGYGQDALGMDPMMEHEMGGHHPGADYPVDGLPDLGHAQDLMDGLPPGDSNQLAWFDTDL

CHI Log D procedure = format: physicochemical; conditions: for CHI Log D: pH 7.4
[2] = fluorescence polarization, beta-catenin, read-out: FP EC50

Compound | Solubility (Solubility in PBS) | IC50 [1, 2] | IC50 ([1]; read-out: beta-Catenin FP IC50) | CHI Log D (CHI Log D procedure) | chromatographic logD (CHI Log D procedure; pH 7.4, CHI Log D)
CC(=O)N1CCC[C@]12CC=CCCCC1(CCCC=CCCCOC(=O)N3CC[C@@](C(=O)N[C@@H](Cc4ccsc4)C(=O)N[C@@H](Cc4csc5ccccc45)C(=O)N[C@@H](CCC(N)=O)C(N)=O)(C3)NC(=O)[C@H]([C@@H](C)O)NC(=O)[C@H](Cc3ccccc3)NC(=O)[C@H](C)NC(=O)[C@H](C)NC(=O)[C@H](Cc3cccc(C(=O)O)c3)NC(=O)[C@H](CC(=O)O)NC1=O)NC(=O)[C@H](CC(C)(C)C)NC(=O)[C@H](CC(=O)O)NC2=O (stereo partly drawn) [I-981, Ac-PL3-Asp-Npg-B5-Asp-3COOHF-Ala-Ala-Phe-Thr-PyrS2-3Thi-BztA-Gln-NH2] | 45 µM (≈ 89.2 µg/mL) | 199 nM | 374 nM | 1.761 | –
CC(=O)N1CCC[C@]12CC=CCCCC1(CCCC=CCCCOC(=O)N3CC[C@@](C(=O)N[C@@H](Cc4ccsc4)C(=O)N[C@@H](Cc4csc5ccccc45)C(=O)N[C@@H](CO)C(N)=O)(C3)NC(=O)[C@H](Cc3ccccc3)NC(=O)[C@H](Cc3ccccc3)NC(=O)[C@H](C)NC(=O)[C@H](C)NC(=O)[C@H](Cc3cccc(C(=O)O)c3)NC(=O)[C@H](CC(=O)O)NC1=O)NC(=O)[C@H](CC(C)(C)C)NC(=O)[C@H](CC(=O)O)NC2=O (stereo partly drawn) [I-982, Ac-PL3-Asp-Npg-B5-Asp-3COOHF-Ala-Ala-Phe-Phe-PyrS2-3Thi-BztA-Ser-NH2] | 16 µM (≈ 31.8 µg/mL) | 190 nM | 190 nM | 1.853 | –
CC(=O)N1CCC[C@]12CC=CCCCC1(CCCC=CCCCOC(=O)N3CC[C@@](C(=O)N[C@@H](Cc4ccsc4)C(=O)N[C@@H](Cc4csc5ccccc45)C(=O)N[C@@H](CO)C(N)=O)(C3)NC(=O)[C@H](Cc3ccccc3)NC(=O)[C@H](Cc3ccccc3)NC(=O)[C@H](C)NC(=O)[C@H](C)NC(=O)[C@H](Cc3cccc(C(=O)O)c3)NC(=O)[C@H](CC(=O)O)NC1=O)NC(=O)[C@H](CC(C)(C)C)NC(=O)[C@H](CC(=O)O)NC2=O (stereo partly drawn) [I-983, Ac-PL3-Asp-Npg-B5-Asp-3COOHF-Ala-Ala-Phe-Phe-PyrS2-3Thi-BztA-Ser-NH2] | 10 µM (≈ 19.9 µg/mL) | 118 nM | 118 nM | 1.919 | –
CC(=O)N1CCC[C@]12CC=CCCCC1(CCCC=CCCCOC(=O)N3CC[C@@](C(=O)N[C@@H](Cc4ccsc4)C(=O)N[C@@H](Cc4csc5ccccc45)C(=O)N[C@@H](CO)C(N)=O)(C3)NC(=O)[C@H](CO)NC(=O)[C@H](Cc3ccccc3)NC(=O)[C@H](C)NC(=O)[C@H](C)NC(=O)[C@H](Cc3cccc(C(=O)O)c3)NC(=O)[C@H](CC(=O)O)NC1=O)NC(=O)[C@H](CC(C)(C)C)NC(=O)[C@H](CC(=O)O)NC2=O (stereo partly drawn) [I-985, Ac-PL3-Asp-Npg-B5-Asp-3COOHF-Ala-Ala-Phe-Ser-PyrS2-3Thi-BztA-Ser-NH2] | 47 µM (≈ 90.5 µg/mL) | 301 nM | 431 nM | 1.87 | –
CC(=O)N1CCC[C@]12CC=CCCCC1(CCCC=CCCCOC(=O)N3CC[C@@](C(=O)N[C@@H](Cc4ccc(O)cc4)C(=O)N[C@@H](Cc4csc5ccccc45)C(=O)N[C@@H](CCC(N)=O)C(N)=O)(C3)NC(=O)[C@H](Cc3ccccc3)NC(=O)[C@H](Cc3ccccc3)NC(=O)[C@H](C)NC(=O)[C@H](C)NC(=O)[C@H](CN(CC(=O)O)CC(F)(F)F)NC(=O)[C@H](CC(=O)O)NC1=O)NC(=O)[C@H](CC(C)(C)C)NC(=O)[C@H](CC(=O)O)NC2=O (stereo partly drawn) [I-989, Ac-PL3-Asp-Npg-B5-Asp-TfeGA-Ala-Ala-Phe-Phe-PyrS2-Tyr-BztA-Gln-NH2] | 10 µM (≈ 20.7 µg/mL) | – | 87 nM | – | 2.1

The next lines start with the values.

Solubility (Solubility in PBS) | IC50 [1, 2] | IC50 ([1]; read-out: beta-Catenin FP IC50) | CHI Log D (CHI Log D procedure) | chromatographic logD (CHI Log D procedure; pH 7.4, CHI Log D) | Compound
46 µM (≈ 87.7 µg/mL) | 1710 nM | 2240 nM | 1.952 | – | CCN(CC(=O)O)C[C@@H]1NC(=O)[C@H](CC(=O)O)NC(=O)C2(CCCC=CCCCOC(=O)N3CC[C@@](C(=O)N[C@@H](Cc4ccsc4)C(=O)N[C@@H](Cc4csc5ccccc45)C(=O)N[C@@H](CO)C(N)=O)(C3)NC(=O)[C@H](CO)NC(=O)[C@H](Cc3ccccc3)NC(=O)[C@H](C)NC(=O)[C@H](C)NC1=O)CCCC=CC[C@]1(CCCN1C(C)=O)C(=O)N[C@@H](CC(=O)O)C(=O)N[C@@H](CC(C)(C)C)C(=O)N2 (stereo partly drawn) [I-975, Ac-PL3-Asp-Npg-B5-Asp-EtGA-Ala-Ala-Phe-Ser-PyrS2-3Thi-BztA-Ser-NH2]
50 µM (≈ 99.7 µg/mL) | 399 nM | 399 nM | 1.78 | – | CC(=O)N1CCC[C@]12CC=CCCCC1(CCCC=CCCCOC(=O)N3CC[C@@](C(=O)N[C@@H](Cc4ccsc4)C(=O)N[C@@H](Cc4csc5ccccc45)C(=O)N[C@@H](CCC(N)=O)C(N)=O)(C3)NC(=O)[C@H](CC(N)=O)NC(=O)[C@H](Cc3ccccc3)NC(=O)[C@H](C)NC(=O)[C@H](C)NC(=O)[C@H](Cc3cccc(C(=O)O)c3)NC(=O)[C@H](CC(=O)O)NC1=O)NC(=O)[C@H](CC(C)(C)C)NC(=O)[C@H](CC(=O)O)NC2=O (stereo partly drawn) [I-976, Ac-PL3-Asp-Npg-B5-Asp-3COOHF-Ala-Ala-Phe-Asn-PyrS2-3Thi-BztA-Gln-NH2]
46 µM (≈ 91.7 µg/mL) | 367 nM | 875 nM | 1.87 | – | CC(=O)N1CCC[C@]12CC=CCCCC1(CCCC=CCCCOC(=O)N3CC[C@@](C(=O)N[C@@H](Cc4ccsc4)C(=O)N[C@@H](Cc4csc5ccccc45)C(=O)N[C@@H](CCC(N)=O)C(N)=O)(C3)NC(=O)[C@H](CC(N)=O)NC(=O)[C@H](Cc3ccccc3)NC(=O)[C@H](C)NC(=O)[C@H](C)NC(=O)[C@H](Cc3cccc(C(=O)O)c3)NC(=O)[C@H](CC(=O)O)NC1=O)NC(=O)[C@H](CC(C)(C)C)NC(=O)[C@H](CC(=O)O)NC2=O (stereo partly drawn) [I-977, Ac-PL3-Asp-Npg-B5-Asp-3COOHF-Ala-Ala-Phe-Asn-PyrS2-3Thi-BztA-Gln-NH2]
19 µM (≈ 37.6 µg/mL) | 221 nM | 221 nM | 1.695 | – | CC(=O)N1CCC[C@]12CC=CCCCC1(CCCC=CCCCOC(=O)N3CC[C@@](C(=O)N[C@@H](Cc4ccsc4)C(=O)N[C@@H](Cc4csc5ccccc45)C(=O)N[C@@H](CCC(N)=O)C(N)=O)(C3)NC(=O)[C@H]([C@@H](C)O)NC(=O)[C@H](Cc3ccccc3)NC(=O)[C@H](C)NC(=O)[C@H](C)NC(=O)[C@H](Cc3cccc(C(=O)O)c3)NC(=O)[C@H](CC(=O)O)NC1=O)NC(=O)[C@H](CC(C)(C)C)NC(=O)[C@H](CC(=O)O)NC2=O (stereo partly drawn) [I-980, Ac-PL3-Asp-Npg-B5-Asp-3COOHF-Ala-Ala-Phe-Thr-PyrS2-3Thi-BztA-Gln-NH2]
45 µM (≈ 86.7 µg/mL) | 179 nM | 179 nM | 1.8 | – | CC(=O)N1CCC[C@]12CC=CCCCC1(CCCC=CCCCOC(=O)N3CC[C@@](C(=O)N[C@@H](Cc4ccsc4)C(=O)N[C@@H](Cc4csc5ccccc45)C(=O)N[C@@H](CO)C(N)=O)(C3)NC(=O)[C@H](CO)NC(=O)[C@H](Cc3ccccc3)NC(=O)[C@H](C)NC(=O)[C@H](C)NC(=O)[C@H](Cc3cccc(C(=O)O)c3)NC(=O)[C@H](CC(=O)O)NC1=O)NC(=O)[C@H](CC(C)(C)C)NC(=O)[C@H](CC(=O)O)NC2=O (stereo partly drawn) [I-984, Ac-PL3-Asp-Npg-B5-Asp-3COOHF-Ala-Ala-Phe-Ser-PyrS2-3Thi-BztA-Ser-NH2]
27 µM (≈ 52.7 µg/mL) | 136 nM | 136 nM | 1.855 | – | CC(=O)N1CCC[C@]12CC=CCCCC1(CCCC=CCCCOC(=O)N3CC[C@@](C(=O)N[C@@H](Cc4ccsc4)C(=O)N[C@@H](Cc4csc5ccccc45)C(=O)N[C@@H](CO)C(N)=O)(C3)NC(=O)[C@H](CC(C)C)NC(=O)[C@H](Cc3ccccc3)NC(=O)[C@H](C)NC(=O)[C@H](C)NC(=O)[C@H](Cc3cccc(C(=O)O)c3)NC(=O)[C@H](CC(=O)O)NC1=O)NC(=O)[C@H](CC(C)(C)C)NC(=O)[C@H](CC(=O)O)NC2=O (stereo partly drawn) [I-986, Ac-PL3-Asp-Npg-B5-Asp-3COOHF-Ala-Ala-Phe-Leu-PyrS2-3Thi-BztA-Ser-NH2]
10 µM (≈ 19.5 µg/mL) | 112 nM | 112 nM | 2.115 | – | CC(=O)N1CCC[C@]12CC=CCCCC1(CCCC=CCCCOC(=O)N3CC[C@@](C(=O)N[C@@H](Cc4ccsc4)C(=O)N[C@@H](Cc4csc5ccccc45)C(=O)N[C@@H](CO)C(N)=O)(C3)NC(=O)[C@H](CC(C)C)NC(=O)[C@H](Cc3ccccc3)NC(=O)[C@H](C)NC(=O)[C@H](C)NC(=O)[C@H](Cc3cccc(C(=O)O)c3)NC(=O)[C@H](CC(=O)O)NC1=O)NC(=O)[C@H](CC(C)(C)C)NC(=O)[C@H](CC(=O)O)NC2=O (stereo partly drawn) [I-987, Ac-PL3-Asp-Npg-B5-Asp-3COOHF-Ala-Ala-Phe-Leu-PyrS2-3Thi-BztA-Ser-NH2]
